Experimental data from publication PMC7915527, “Development of a Liquid Chromatography/Mass Spectrometry-Based Inhibition Assay for the Screening of Steroid 5-α Reductase in Human and Fish Cell Lines” (Molecules, 2021).
“And” between values parts separate entries of the source, which are not always exact repeats. Identical values can stand only once. Like-named read-outs stand apart in the source and are kept apart here.

Experiments:
SRD5A1 = target: T1, SRD5A1 (Homo sapiens, UniProt P18405); assay: Cell-based 5AR activity/inhibition assay in HEK-293 cells transiently overexpressing SRD5A1; details: IC50 Value, SRD5A1-overexpressing HEK-293 cells; testosterone at KM, 3 h; 95% CI in parentheses
T1 sequence (P18405 1-259): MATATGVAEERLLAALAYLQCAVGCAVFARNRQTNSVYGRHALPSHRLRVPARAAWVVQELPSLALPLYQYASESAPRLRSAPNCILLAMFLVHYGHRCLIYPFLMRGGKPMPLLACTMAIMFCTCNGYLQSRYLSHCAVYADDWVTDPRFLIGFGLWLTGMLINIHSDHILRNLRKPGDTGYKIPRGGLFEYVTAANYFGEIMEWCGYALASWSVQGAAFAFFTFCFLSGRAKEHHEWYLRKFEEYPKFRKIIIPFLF
Protocol: (§1) For the calculation of KM, testosterone was added in increments of 0 to 50 µM to non-vector- and SRD5A1-HEK293 cells and in increments of 0 to 10 µM to SRD5A2-HEK293 cells 24 h after transfection. The DHT levels were measured (Figure 4a). […] The IC50 values were calculated (Table 3).
(§2) Transient overexpression was induced using transfection of cDNA with lipofectamine (Thermo Fisher Scientific, Waltham, MA, USA). HEK-293 cells were seeded in 24-well plates at a density of 10^5 cells per well and incubated at 37 °C in an atmosphere of 5% CO2. After overnight culture, 500 ng of cDNA and 0.75 µL of the Lipofectamine 3000 reagent were diluted in the Opti-MEM medium and incubated for 15 min for DNA-lipid complex formation. The DNA-lipid complex was added to the wells and incubated for 6 h. After incubation, the sample-treated medium was changed to the complete culture medium and incubated for 18 h.
(§3) All cells were seeded on a 24-well plate. The seeding densities of the DU-145, LNCaP, and SW-13 cells were 0.5 × 10^5 cells per well. The ZFL and RTG-2 cells were seeded at densities of 1.0 × 10^5 cells and 2.0 × 10^5 cells, respectively. […]
(§4) The extracts were analyzed for DHT via ultra-performance LC-MS/MS (Agilent 1200/6460C QQQMSD coupled Jet Stream technology electrospray ion (ESI) source; Agilent Technologies, Santa Clara, CA, USA). […]

SRD5A2 = target: T2, SRD5A2 (Homo sapiens, UniProt P31213); assay: Cell-based 5AR activity/inhibition assay in HEK-293 cells transiently overexpressing SRD5A2; details: 95% CI in parentheses
T2 sequence (P31213 1-254): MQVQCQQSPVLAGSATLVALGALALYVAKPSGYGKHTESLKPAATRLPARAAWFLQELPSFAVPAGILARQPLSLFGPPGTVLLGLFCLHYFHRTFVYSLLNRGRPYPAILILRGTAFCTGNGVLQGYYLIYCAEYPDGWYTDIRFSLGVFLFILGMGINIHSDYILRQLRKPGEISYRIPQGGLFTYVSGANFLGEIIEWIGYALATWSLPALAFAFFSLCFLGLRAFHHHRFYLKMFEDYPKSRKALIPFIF
Protocol: as §1, §2, §3, §4

5AR in ZFL cells = assay: Cell-based 5AR activity/inhibition assay in zebrafish liver cells (ZFL)
Protocol: (§5) For the calculation of KM for optimized assay conditions, ZFL and RTG-2 cells were treated with testosterone in increments of 0 to 50 µM. The DHT levels were measured (Figure 5a). Based on the calculated KM values, inhibition assays were conducted (Figure 5b).
(§6) HEK-293, LNCaP, DU-145, SW-13, and ZFL cell lines were obtained from the American Type Culture Collection (ATCC; Manassas, VA, USA) and cultured according to their instructions. The HEK-293 cells were cultured in a high-glucose DMEM that contained 10% FBS, 100 units/mL penicillin, and 100 µg/mL streptomycin. The DU-145 cells were cultured in EMEM that contained 10% FBS, 100 units/mL penicillin, and 100 µg/mL streptomycin. The LNCaP cells were cultured in RPMI 1640 that contained 10% FBS, 100 units/mL penicillin, and 100 µg/mL streptomycin at 37 °C in 5% CO2. SW-13 cells were cultured in Leibovitz’s L-15 medium with 10% FBS at 37 °C without CO2. ZFL cells were cultured in a complete medium that was composed of 50% L-15, 35% DMEM medium, and 15% F12 medium that contained […] sodium bicarbonate, 15 mM HEPES, 0.01 mg/mL bovine insulin, 50 ng/mL mouse EGF, 5% FBS, and 0.5% trout serum at 28 °C without CO2. RTG-2 cells were obtained from Prof. Kristin Schirmer (EAWAG, Switzerland) and cultured in the L-15 medium with 5% FBS, 100 units/mL penicillin, and 100 µg/mL streptomycin at 20 °C without CO2.
(§7) All cells were seeded on a 24-well plate. The seeding densities of the DU-145, LNCaP, and SW-13 cells were 0.5 × 10^5 cells per well. The ZFL and RTG-2 cells were seeded at densities of 1.0 × 10^5 cells and 2.0 × 10^5 cells, respectively. After overnight culture, the culture media was aspirated from each well and treated with testosterone that was diluted in the complete medium for 3 h and 6 h. In the case of transiently transfected HEK-293 cells, the testosterone treatment was applied after transient overexpression under the same conditions as other cell lines. The treated media were collected from each well and centrifuged at 3000× g for 5 min at 4 °C. The supernatants were stored at −80 °C until needed. […] The seeding conditions of all cells were the same as those previously described. After overnight culture, the culture medium was aspirated, and the cells were cotreated with a medium that contained testosterone and inhibitors for 3 h. The medium was collected from each well and centrifuged at 3000× g for 5 min at 4 °C. The supernatants were stored at −80 °C until analysis.
A method that was modified by was used for DHT extraction from the samples. […]
(§8) The extracts were analyzed for DHT via ultra-performance LC-MS/MS (Agilent 1200/6460C QQQMSD coupled Jet Stream technology electrospray ion (ESI) source; Agilent Technologies, Santa Clara, CA, USA).

[1] = target: rat and human 5α-reductase; design: method as in PMID 14753249, PMID 8645628, PMID 7734404, PMID 9605412, PMID 16818707; details: ref [14],[43],[44],[45],[46],[47]; cited from earlier work
5AR in RTG-2 cells = assay: Cell-based 5AR activity/inhibition assay in rainbow trout gonad cells (RTG-2)
Protocol: as §5, §6, §7
A method that was modified by was used for DHT extraction from the samples. Each sample, which included the calibration, QC, and assay medium, was placed in 1.5 mL PP tubes and spiked with a 0.5 ng/mL DHT-D3 internal standard prior to extraction. All sample tubes were vortexed for 5 s, and the samples were extracted using a liquid-liquid extraction (LLE) method via the addition of 600 µL of MTBE. The samples were vortexed and centrifuged at 4500× g rpm for 5 min, and the organic phase was transferred into glass tubes. The extraction step was repeated once, and the organic phase extracts were dried under a stream of nitrogen. After the samples were dried, 100 µL of the derivatization reagent and 100 µL of TEA were added for DHT derivatization. […]
as §8

[2] = target: T3, 5AR (SRD5A1) in DU-145 cells (Homo sapiens, UniProt P18405); details: DHT formation from testosterone 0 to 10 µM, 95% CI in parentheses
T3 sequence (P18405 1-259): T1 sequence (P18405 1-259)

[3] = substrate: C[C@]12CC[C@H]3[C@@H](CCC4=CC(=O)CC[C@@]43C)[C@@H]1CC[C@@H]2O; assay: cells, lysate or membranes; details: 95% CI in parentheses
[4] = read-out: IC50 Value, testosterone at KM, 3 h, 95% CI in parentheses
[5] = testosterone at KM, 3 h, 95% CI in parentheses, read-out: IC50 Value
[6] = testosterone 0 to 50 µM, 95% CI in parentheses
[7] = other: SRD5A2-HEK293 cells, testosterone 0 to 10 µM, 37.0 °C
[8] = other: LNCaP cells, testosterone 0 to 10 µM
[9] = other: DU-145 cells, testosterone 0 to 10 µM
[10] = other: SRD5A1-HEK293 cells, testosterone 0 to 50 µM, 37.0 °C

C[C@]12C=CC(=O)N[C@@H]1CC[C@@H]1[C@@H]2CC[C@]2(C)[C@@H](C(=O)Nc3cc(C(F)(F)F)ccc3C(F)(F)F)CC[C@@H]12 [Dutasteride, dutasteride]
IC50 (SRD5A1): 1.27 nM
IC50 (SRD5A2; IC50 Value, SRD5A2-overexpressing HEK-293 cells, testosterone at KM, 3 h): 1.19 nM
IC50 (5AR in ZFL cells; [4]): 7.33 nM
IC50 [1]: 0.2 to 7 nM
IC50 (5AR in RTG-2 cells; [4]): 13.2 nM

CC(C)(C)NC(=O)[C@H]1CC[C@H]2[C@@H]3CC[C@H]4NC(=O)C=C[C@]4(C)[C@H]3CC[C@]12C [Finasteride, finasteride]
IC50 (5AR in ZFL cells; [5]): 142 nM
IC50 (5AR in RTG-2 cells; testosterone at KM, 3 h, 95% CI in parentheses, listed as finasteride, read-out: IC50 Value): 2460 nM
IC50 (5AR in RTG-2 cells; [5]): 2670 nM

C[C@]12CC[C@H]3[C@@H](CCC4=CC(=O)CC[C@@]43C)[C@@H]1CC[C@@H]2O [testosterone]
Vmax (SRD5A2; SRD5A2-HEK293 cells, testosterone 0 to 10 µM): 22.52 nmol/L/h
Km (5AR in ZFL cells; [6]): 0.46 nM
Vmax (5AR in ZFL cells; [6]): 116.6 nmol L^−1 h^−1 and 116.60 (106.9–126.9) nmol L^−1 h^−1
Vmax [2]: 75.55 nmol/L/h
Km (5AR in RTG-2 cells; [6]): 1.12 nM
Vmax (5AR in RTG-2 cells; [6]): 13.09 (11.88–14.37) nmol L^−1 h^−1

B1: SRD5A2 (Homo sapiens) (protein)
chain: T2 sequence (P31213 1-254)
Km [3, 7]: 0.36 (0.18–0.65) nM
Vmax [3, 7]: 0.000375 µM/min

B2: 5AR (SRD5A1) in LNCaP cells (Homo sapiens) (protein)
chain: T1 sequence (P18405 1-259)
Km [3, 8]: 15.10 (12.35–19.25) nM
Vmax [3, 8]: 0.000644 µM/min

B3: 5AR (SRD5A1) in DU-145 cells (Homo sapiens) (protein)
chain: T1 sequence (P18405 1-259)
Km [3, 9]: 9.15 (7.01–12.81) nM
Vmax [3, 9]: 0.00126 µM/min

B4: SRD5A1 (Homo sapiens) (protein)
chain: T1 sequence (P18405 1-259)
Km [3, 10]: 2.29 (1.70–3.09) nM
Vmax [3, 10]: 0.000143 µM/min
